Data as given in patent US20050019331A1, “Synthetic peptide neutrophil cell chemotactic agents” (Chrysalis Biotechnology, priority 1994, published 2005).
Ends that are not written are not given here.

How the values were obtained:
[1] = system: human neutrophils; assay: Neutrophil chemotaxis in Modified Boyden 48-well Microchemotaxis Chambers; type: cell-based; details: for maximal stimulation of neutrophil chemotaxis relative to thrombin or IL-8: FIG. 3 vs FIG. 1C
Protocol: Human neutrophils were isolated from blood of healthy volunteers, drawn into one-tenth volume of trisodium citrate. The neutrophils were isolated from the blood using established Ficoll-Hypaque (MONO POLYRESOLVING MEDIUM™) protocol, Kalmer et al. 1988, specifically incorporated herein by reference. The cells were washed in HBSS containing 20 mM HEPES, pH 7.4 (HHBSS), pelleted by centrifugation (600×g), and resuspended into HHBSS at the indicated density. Trypan blue exclusion assays indicated greater than 97% cell viability.
Freshly isolated human neutrophils (150,000 cells per 50 μl) were applied to wells of Modified Boyden 48-well Microchemotaxis Chambers (Neuro Probe, Cabin John, Md.) with pre-wet […], PVP-free polycarbonate membranes (Neuro Probe, Cabin John, Md.) (see Mansfield, et al. 1990, which is specifically incorporated herein by reference). The lower well in these chambers were filled with 27 μl of HHBSS solution containing indicated concentrations of substances to be tested. After loading, the chambers were incubated for 2 hours at 37° C. Membranes were removed, rinsed with HHBSS, fixed and stained using DIFF-QUIK® to visualize and quantitate cells that had migrated through the filters. For each assay condition, cells migrating through 4 wells were examined using a Nikon Microscope (at 400×). For each well, the total cells present in 6 random fields were counted and recorded. Each assay represents data from at least three analyses of the same type with neutrophils isolated from at least two individuals.
Freshly isolated human peripheral blood neutrophils were added to wells of Modified Boyden Microwell Chemotaxis Chambers and the number of cells migrating through the filters was determined as described in Materials and Methods. For each assay, cells migrating through 4 wells were examined, counted, and recorded (6 random fields per well) using a Nikon LabPhot Microscope (400×).
Human neutrophils were added to wells of Boyden Microwell Chambers and assayed for directed chemotaxis toward indicated concentrations of synthetic peptides representing the tethered ligand region of PART (SFLLRNPNDKYEPF—SEQ ID NO.: 7), or TRAP-508, the high-affinity receptor binding domain of human thrombin ([…]—SEQ ID NO.: 8).
Indicated concentrations of peptides representing residues 26-41 of the human (SEQ ID NO.: 1) (∇) or hamster (SEQ ID NO.: 2) (∘) PART receptor component were added to lower wells of Boyden Microwell Chambers and neutrophil chemotaxis toward the peptides was assayed as described above.

[2] = system: neutrophils; assay: Superoxide generation by stimulated neutrophils (SOD-inhibitable ferricytochrome C reduction); type: cell-based, human; details: for O2 released (superoxide generation): 2×10^6 neutrophils/ml, twenty minutes after addition
Protocol: Superoxide generation was determined by measuring the superoxide dismutase (SOD)-inhibitable reduction of ferricytochrome C (Thomas et al., 1992, incorporated herein by reference). Briefly, 2×10^6 neutrophils/ml were incubated with, ferricytochrome C (433 μg/ml) and glucose (1.1 mM) in phosphate buffered saline (PBS) at 37° C. for five minutes, in presence or absence of 1 μg/ml SOD. Twenty minutes after addition of NTP, IL-8, or PBS, aliquots were removed, cooled to 4° C., and filtered through […] particle separators (Amicon). The optical absorption of the filtrate was then read at 550 nm. The amount of O2 generated was calculated by the difference in absorbance of the samples with or without SOD, using a 15.5 millimolar extinction coefficient at 550 nm for cytochrome C reduction.

[3] = system: fibroblasts and other cells; details: Van Obberghen-Schilling and Pouyssegur 1993; cited from earlier work
[4] = system: fibroblasts; assay: c-fos and other G-protein initiated signals in fibroblasts; type: cell-based; details: compared with proteolytically active thrombin
Source text: Therefore, the PART activating peptide fragment was not sufficient to stimulate chemotaxis.

[5] = system: NTP receptor on human neutrophils; assay: 125I-NTP-Y saturation binding to neutrophils
Protocol: NTP was radiolabeled using IODO-GEN® (Pierce) catalyzed iodination (Fraker and Speck, 1978, specifically incorporated herein by reference). 5 mCi of Na^125I (Amersham, UK) was incubated in glass tubes coated with IODO-GEN® with 250 μg of HPLC-purified NTP-Y in 250 μl of Phosphate Buffered Saline (PBS), pH 7.2. After 7 minutes, the radiolabeled peptide was separated from free ^125Iodine by its adsorption to a C-18 SEP PAK® column, followed by elution with 100% acetonitrile. The eluted radioactive peptide was then dried under vacuum to remove acetonitrile, rehydrated with PBS, and stored as frozen aliquots (−20° C.) at a concentration of 100 μg/ml.
For saturation binding assays, […] were incubated at 37° C. with indicated concentrations of ^125I-NTP-Y in 100 μl of DV medium containing 20 mM HEPES buffer, pH 7.4, in 0.6 ml eppendorf tubes. The binding was terminated and ^125I-NTP-Y that was bound to cells was separated from free ^125I-NTP-Y by rapid filtration and rinsing (2× with 10 mls of 4° C. PBS) through Whatman GF/C filters, using a Millipore filtration apparatus. Radioactivity on filters was then counted in a gamma counter (Beckman Instruments, Inc., model Gamma 4000). Nonspecific binding of ^125I-NTP-Y was measured in the presence of a 500-fold molar excess of unlabeled peptide and was subtracted from total binding to determine the amount of specific (saturable) binding.
NTP was synthesized with an N-terminal tyrosine (YRRPESKATNATLDPR—SEQ ID NO.: 6), analyzed for chemotactic activity, and radiolabeled as described in methods. […] Specific binding was determined by subtracting the nonspecific binding of ^125I-NTP-Y (binding in the presence of 500-fold molar excess of unlabeled NTP-Y) from the total binding. Insert represents a Scatchard-like analysis of the binding isotherm using total radioactivity in the medium as a measure of free ligand. […]

[6] = system: fibroblasts; assay: Parallel 125I-NTP-Y binding studies with fibroblasts
Source text: The chemotactic effects of NTP appeared to be mediated by interaction with specific NTP receptor binding sites on the surface of neutrophils.

IL-8: recombinant IL-8
EC50 ([1]; FIG. 1, 2 hours at 37° C., read-out: concentration required for half-maximal stimulation of neutrophil chemotaxis): ~10 nM
O2 released (superoxide generation) ([2]; 400 nmolar IL-8): 102 ± 16 nmol

NTP: released N-terminal fragment peptide of PART; species (human or hamster) not stated at these places (RQPESEMTDATVNPR)
neutrophil chemotaxis ([1]; NTP, Example 4): stimulated neutrophil chemotaxis
superoxide generation compared to IL-8 ([2]; 800 nM NTP vs 400 nmolar IL-8): negligible
O2 released (superoxide generation) ([2]; 800 nM NTP): 9 ± 0.9 nmol
activity on fibroblasts and other cells [3]: no apparent activity

RQPESEMTDA TVNPR (RQPESEMTDATVNPR) [SEQ ID NO.: 2, peptide representing residues 26-41 of the hamster PART receptor component]
maximal stimulation of neutrophil chemotaxis relative to thrombin or IL-8 [1]: nearly equivalent to that seen with thrombin or IL-8

RRPESKATNA TLDPR (RRPESKATNATLDPR) [SEQ ID NO.: 1, peptide representing residues 26-41 of the human PART receptor component]
maximal stimulation of neutrophil chemotaxis relative to thrombin or IL-8 [1]: nearly equivalent to that seen with thrombin or IL-8

SFFLRN [reference compound]
neutrophil chemotaxis ([1]; concentrations up to 2000-fold higher than NTP): did not

SFLLRNPNDKYEPF [PART activating peptide fragment, synthetic peptide representing the tethered ligand region of PART, reference compound]
neutrophil chemotaxis ([1]; concentrations up to 7.0 μM, FIG. 2): only marginally chemotactic
stimulation of c-fos and other G-protein initiated signals [4]: nearly the same extent as proteolytically active thrombin

^125I-NTP-Y: NTP-Y radiolabeled with 125I by IODO-GEN catalyzed iodination (YRRPESKATNATLDPR; also: 125I radiolabel)
binding to human neutrophils ([5]; 40 min at 37° C., FIG. 5): specified and saturable
NTP receptors per cell (saturation curve and Scatchard-like analysis) ([5]; human neutrophils, FIG. 5 insert): ~3000 receptors per cell
dose-response curve compared with NTP ([5]; iodinated peptide, iodination does not alter peptide activity): nearly identical to NTP
specific binding to fibroblasts [6]: no detectable specific binding
